Test results from patent publication US6869913B1, “Pyridazin-3-one derivatives, their use and intermediates for their production” (Sumitomo Chemical Company, Limited, priority 1995, dated 2005).

Tests used:
Format in all cases: in vivo
[1] = tested on: barnyardgrass (Echinochloa oryzicola); assay: Test Example 4: flooding treatment on paddy fields; details: application amount of active ingredient 250 g/ha, examined 19 days after application, index 0 to 5
Experimental: Cylindrical plastic pots of 9 cm in diameter and 11 cm in depth were filled with soil, in which the seeds of barnyardgrass (Echinochloa oryzicola) were sowed. These pots were flooded to form a paddy field, and the test plants were grown in a greenhouse for 7 days. Each of the test compounds listed below was formulated into an emulsifiable concentrate according to Formulation Example 2, which was diluted with water to a prescribed concentration. The dilution was applied to the water surface in the pots at a volume of 50 liters per hectare. After the application, the test plants were grown in the greenhouse for 19 days, and the herbicidal activity was examined.

[2] = tested on: velvetleaf (Abutilon theophrash); assay: Test Example 3: soil surface treatment on upland fields; details: 500 g/ha active ingredient; soil surface spray; examined after 19 days
Experimental: (§1) Cylindrical plastic pots of 10 cm in diameter and 10 am in depth were filled with soil, in which the seeds of […] (Ipomoea hederacea var. integriuscula) and velvetleaf (Abutilon theophrash) were sowed. Each of the test compounds listed below was formulated into an emulsifiable concentrate according to Formulation Example 2, which was diluted with water to a prescribed concentration. The dilution was uniformly sprayed over the soil surface in the pots with a sprayer at a volume of 1000 liters per hectare. After the application, the test plants were grown in a greenhouse for 19 days, and the herbicidal activity was examined.

[3] = tested on: entireleaf morningglory (Ipomoea hederacea var. integriuscula); assay: as above; details: 500 g/ha active ingredient; soil surface spray; examined after 19 days
Experimental: as §1

[4] = tested on: velvetleaf (Abutilon theophrash); assay: Test Example 1: foliar treatment on upland fields; details: 500 g/ha active ingredient; foliar spray; examined 19 days after application
Experimental: as §1, with “10 cm” for “10 am”, “were sowed, and the test plants were grown in a greenhouse for 19 days.” for “were sowed.”, “water containing a spreading agent” for “water”, “the foliage of” for “the soil surface in”, “the test plants” for “the pots”, “in the” for “in a”

[5] = tested on: entireleaf morningglory (Ipomoea hederacea var. integriuscula); assay: Test Example 1: foliar treatment on upland fields; details: 500 g/ha active ingredient; foliar spray; examined 19 days after application
Experimental: as §1, with “10 cm” for “10 am”, “were sowed, and the test plants were grown in a greenhouse for 19 days.” for “were sowed.”, “water containing a spreading agent” for “water”, “the foliage of” for “the soil surface in”, “the test plants” for “the pots”, “in the” for “in a”

[6] = tested on: velvetleaf (Abutilon theophrash); assay: Test Example 2: foliar treatment on upland fields; set-up: key: rating; 4–5 = excellent activity, 3 or lower = insufficient; details: 32 g/ha active ingredient; foliar spray; examined 19 days after application
From the text: (§2) The herbicidal activity is excellent when rated at “4” or “5” but insufficient when rated at “3” or lower. The phytotoxicity is no problematic on practical use when rated at “0” or “1” but not allowed when rated at “2” or higher.
(§3) Cylindrical plastic pots of 10 cm in diameter and 10 cm in depth were filled with soil, in which the seeds of barnyardgrass (Echinochloa crus-galli), entireleaf morningglory (Ipomoea hederacea var. integriuscula) and velvetleaf (Abutilon theophrash) were sowed, and the test plants were grown in a greenhouse for 19 days. Each of the test compounds listed below was formulated into an emulsifiable concentrate according to Formulation Example 2, which was diluted with water containing a spreading agent to a prescribed concentration. The dilution was uniformly sprayed over the foliage of the test plants with a sprayer at a volume of 1000 liters per hectare. After the application, the test plants were grown in the greenhouse for 19 days, and the herbicidal activity was examined.

[7] = tested on: barnyardgrass (Echinochloa crus-galli); assay: Test Example 2: foliar treatment on upland fields; set-up: key: rating; 4–5 = excellent activity, 3 or lower = insufficient; details: 32 g/ha active ingredient; foliar spray; examined 19 days after application
From the text: as §2, §3

[8] = tested on: entireleaf morningglory (Ipomoea hederacea var. integriuscula); assay: Test Example 2: foliar treatment on upland fields; set-up: key: rating; 4–5 = excellent activity, 3 or lower = insufficient; details: 32 g/ha active ingredient; foliar spray; examined 19 days after application
From the text: as §2, §3

[9] = tested on: pale smartweed (Polygonum lapathifolium); assay: Test Example 7: soil surface treatment on upland fields; details: 63 g/ha active ingredient; soil surface spray; examined after 19 days
From the text: as §2
(§4) Plastic pots of 25×18 cm^2 in area and 7 cm in depth were filled with soil, in which the seeds of soybean (Glycine max), corn (Zea mays), common lambsquarters (Chenopodium album), slender amaranth (Amaranthus gracilis), and pale smartweed (Polygonum lapathifolium) were sowed. Each of the test compounds listed below was formulated into an emulsifiable concentrate according to Formulation Example 2, which was diluted with water to a prescribed concentration. The dilution was uniformly sprayed over the soil surface in the pots with a sprayer at a volume of 1000 liters per hectare. After the application, the test plants were grown in a greenhouse for 19 days, and the herbicidal activity and phytotoxicity were examined.

[10] = tested on: slender amaranth (Amaranthus gracilis); assay: as above; details: 63 g/ha active ingredient; soil surface spray; examined after 19 days
From the text: as §2, §4

[11] = tested on: common lambsquarters (Chenopodium album); assay: as above; details: 63 g/ha active ingredient; soil surface spray; examined after 19 days
From the text: as §2, §4

[12] = tested on: catchweed bedstraw (Galium aparine); assay: Test Example 6: foliar treatment on upland fields; details: 63 g/ha active ingredient; foliar spray; 25 days after application
From the text: as §2
(§5) Plastic pots of 16×11 cm^2 in are and 7 cm in depth were filled with soil, in which the seeds of wheat (Triticum aestivum), pale smartweed (Polygonum lapathifolium), catchweed bedstraw (Galium aparine), and common chickweed (Stellaria media) were sowed, and the test plants were grown for 29 days. Each of the test compounds listed below was formulated into an emulsifiable concentrate according to Formulation Example 2, which was diluted with water to a prescribed concentration. The dilution was uniformly sprayed over the foliage of the test plants with a sprayer at a volume of 1000 liters per hectare. At this time, the unfavorable weeds and crop plants, although their growth state was different depending upon the weed species, were at the 1- to 4-leaf stage, and the plant height was 5 to 15 cm. After 25 days from the application, the herbicidal activity and phytotoxicity were examined. This test was made in a greenhouse over the entire period.

[13] = tested on: pale smartweed (Polygonum lapathifolium); assay: Test Example 6: foliar treatment on upland fields; details: 63 g/ha active ingredient; foliar spray; 25 days after application
From the text: as §2, §5

[14] = tested on: common chickweed (Stellaria media); assay: Test Example 6: foliar treatment on upland fields; details: 63 g/ha active ingredient; foliar spray; 25 days after application
From the text: as §2, §5

## CCOC(=O)c1cc(-n2ncc(C(F)(F)F)c(C)c2=O)c(F)cc1Cl [Compound 1-642, Ethyl 2-chloro-4-fluoro-5-(4-methyl-5-trifluoromethyl-3-pyridazinon-2-yl)benzoate]
[1]
  Herbicidal activity Barnyardgrass: 5
[2]
  Herbicidal activity Velvetleaf: 5
[3]
  Herbicidal activity Entireleaf morningglory: 5
[4]
  Herbicidal activity Velvetleaf: 5
[5]
  Herbicidal activity Entireleaf morningglory: 5
[6]
  Herbicidal activity Velvetleaf: 5
[7]
  Herbicidal activity Barnyardgrass: 5
[8]
  Herbicidal activity Entireleaf morningglory: 5
[9]
  Herbicidal activity and phytotoxicity Pale smartweed: 5
[10]
  Herbicidal activity and phytotoxicity Slender amaranth: 5
[11]
  Herbicidal activity and phytotoxicity Common lambsquarters: 5

## C#CCN1C(=O)COc2ccc(-n3ncc(C(F)(F)F)c(C)c3=O)cc21 [Compound 2-203, 6-(4-Methyl-5-trifluoromethyl-3-pyridazinon-2-yl)-4-propargyl-2H-1,4-benzoxazin-3-one]
[1]
  Herbicidal activity Barnyardgrass: 5
[2]
  Herbicidal activity Velvetleaf: 5
[3]
  Herbicidal activity Entireleaf morningglory: 5
[4]
  Herbicidal activity Velvetleaf: 5
[5]
  Herbicidal activity Entireleaf morningglory: 5
[6]
  Herbicidal activity Velvetleaf: 5
[7]
  Herbicidal activity Barnyardgrass: 4
[8]
  Herbicidal activity Entireleaf morningglory: 5
[9]
  Herbicidal activity and phytotoxicity Pale smartweed: 5
[10]
  Herbicidal activity and phytotoxicity Slender amaranth: 5
[11]
  Herbicidal activity and phytotoxicity Common lambsquarters: 5

## C#CCOc1cc(-n2ncc(C(F)(F)F)c(C)c2=O)c(F)cc1Cl [Compound 1-486, 2-(4-Chloro-2-fluoro-5-propargyloxyphenyl)-4-methyl-5-trifluoromethylpyridazin-3-one]
[12]
  Herbicidal activity and phytotoxicity Catchweed bedstraw: 5
[13]
  Herbicidal activity and phytotoxicity Pale smartweed: 5
[14]
  Herbicidal activity and phytotoxicity Common chickweed: 5
[1]
  Herbicidal activity Barnyardgrass: 5
[2]
  Herbicidal activity Velvetleaf: 5
[3]
  Herbicidal activity Entireleaf morningglory: 5
[4]
  Herbicidal activity Velvetleaf: 5
[5]
  Herbicidal activity Entireleaf morningglory: 5
[6]
  Herbicidal activity Velvetleaf: 5
[7]
  Herbicidal activity Barnyardgrass: 4
[8]
  Herbicidal activity Entireleaf morningglory: 5

## C#CCN1C(=O)COc2cc(F)c(-n3ncc(C(F)(F)F)cc3=O)cc21 [Compound 2-631, 7-Fluoro-6-(5-trifluoromethyl-3-pyridazinon-2-yl)-4-propargyl-2H-1,4-benzoxazin-3-one]
[1]
  Herbicidal activity Barnyardgrass: 5
[2]
  Herbicidal activity Velvetleaf: 5
[3]
  Herbicidal activity Entireleaf morningglory: 5
[4]
  Herbicidal activity Velvetleaf: 5
[5]
  Herbicidal activity Entireleaf morningglory: 5
[6]
  Herbicidal activity Velvetleaf: 5
[7]
  Herbicidal activity Barnyardgrass: 5
[8]
  Herbicidal activity Entireleaf morningglory: 5
[9]
  Herbicidal activity and phytotoxicity Pale smartweed: 5
[10]
  Herbicidal activity and phytotoxicity Slender amaranth: 5
[11]
  Herbicidal activity and phytotoxicity Common lambsquarters: 5
